Series [1] addresses T1, Beta-secretase 1 (Homo sapiens, UniProt P56817). The series is described as follows: Inhibition of BACE1 at pH 4.5.
Series [2] is described as follows: Apparent permeability in porcine LLC-PK1 cells. The class given is ADME, cell-based, Sus scrofa. The conditions noted are these: pig.
The target in series [3] is T1, Beta-secretase 1. The series can be described thus: Inhibition of BACE1 in HEK293T cells. The format is cell-based, HEK-293T.
Series [4] relates to Mus musculus. The series is described as follows: Drug level in brain of C57/BL6 APP-YAC mouse model at 100 mg/kg, iv. The format is ADME, organism-based, C57Bl/6. More on the design: dose 100 mg/kg, route intravenous. The settings on record: in vivo, read-out: Drug uptake.
The test system of series [5] is Mus musculus. The series can be described thus: Ratio of drug level in brain against plasma in C57/BL6 APP-YAC mouse model at 100 mg/kg, iv. Set-up: dose 100 mg/kg, route intravenous. The class given is ADME, organism-based, C57Bl/6.

Structures are written as SMILES.

Experimental findings from ChEMBL document CHEMBL1137385, “Macrocyclic inhibitors of beta-secretase: functional activity in an animal model” (J Med Chem, 2006) are described below.

T1 sequence (P56817 whole entry): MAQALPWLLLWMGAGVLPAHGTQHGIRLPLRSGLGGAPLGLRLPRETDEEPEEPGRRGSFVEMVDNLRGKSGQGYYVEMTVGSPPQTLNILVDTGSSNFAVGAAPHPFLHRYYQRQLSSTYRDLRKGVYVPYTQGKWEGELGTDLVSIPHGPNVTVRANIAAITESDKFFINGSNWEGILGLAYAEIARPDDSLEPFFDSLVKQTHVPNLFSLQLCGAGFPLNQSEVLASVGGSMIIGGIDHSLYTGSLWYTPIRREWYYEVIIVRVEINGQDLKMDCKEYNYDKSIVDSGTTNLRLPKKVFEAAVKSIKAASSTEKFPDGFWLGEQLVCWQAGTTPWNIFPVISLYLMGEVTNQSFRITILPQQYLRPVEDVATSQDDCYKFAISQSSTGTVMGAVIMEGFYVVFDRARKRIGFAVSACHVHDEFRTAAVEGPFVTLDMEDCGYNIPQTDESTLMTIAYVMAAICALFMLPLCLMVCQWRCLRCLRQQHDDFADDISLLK

`CC[C@H](NCC1Cc2cccc(c2)CCCCCc2cc(cc(N(C)S(C)(=O)=O)c2)C(=O)N1)C(=O)NCC(C)C` (stereo partly drawn) returned a 50% inhibitory concentration (IC50) in series [1] of 1.1 µM.
`CC[C@H](NCC1Cc2cccc(c2)CCCCc2cc(cc(N(C)S(C)(=O)=O)c2)C(=O)N1)C(=O)NCC(C)C` (stereo partly drawn): the Papp in series [2] came out at 190 nm/s. For the same molecule, the IC50 in series [1] came out at 0.09 µM; in series [3], 1.14 µM.
`CNC(=O)c1cc(C(=O)NC(CO)Cc2cccc(OC)c2)cc(N(C)S(C)(=O)=O)c1` (stereo not drawn) gave a half-maximal inhibitory concentration (IC50) in series [1] greater than 100 µM.
Turning to `CC[C@H](NCC1Cc2cccc(c2)OCCNC(=O)c2cc(cc(N(C)S(C)(=O)=O)c2)C(=O)N1)C(=O)NCC(C)C` (stereo partly drawn), the Papp in series [2] is 5 nm/s. Moreover, the IC50 in series [1] is 0.032 µM; in series [3], 5.4 µM.
`CCCC[C@H](NC[C@@H]1Cc2cccc(c2)CCCCc2cc(cc(N(CCC)S(C)(=O)=O)c2)C(=O)N1)C(=O)NCC(C)C`: the apparent permeability (Papp) in series [2] stood at 130 nm/s. Also, in series [4], the concentration is 1.1 µM. Also, the IC50 was 0.004 µM in series [1] and 0.076 µM in series [3]. Besides, the BPR in series [5] stood at 20%.

For orientation: IC50 means the concentration that gives 50% inhibition. A lower IC50 goes with greater potency in that assay. By Papp is commonly meant the rate of passage across a membrane or cell layer, normalised by area and donor concentration.
